# Experimental data reported in patent publication US20240252488A1 (KOREA RESEARCH INSTITUTE OF CHEMICAL TECHNOLOGY, priority 2020, published 2024).
# How the values were obtained:
# MLKL [1] = target: T1, MLKL (Homo sapiens, UniProt Q8NB16); assay: MLKL degradation assay in HepG2 cell line (western blot); format: cell-based; set-up: endogenous in cells; host or cells: HepG2 or HaCaT; details: cell line not given; for Degradation assay (Degradation %) 1 μM: compound 1 μM; for Degradation assay (Degradation %) 10 μM: compound 10 μM
# T1 sequence (Q8NB16 1-471): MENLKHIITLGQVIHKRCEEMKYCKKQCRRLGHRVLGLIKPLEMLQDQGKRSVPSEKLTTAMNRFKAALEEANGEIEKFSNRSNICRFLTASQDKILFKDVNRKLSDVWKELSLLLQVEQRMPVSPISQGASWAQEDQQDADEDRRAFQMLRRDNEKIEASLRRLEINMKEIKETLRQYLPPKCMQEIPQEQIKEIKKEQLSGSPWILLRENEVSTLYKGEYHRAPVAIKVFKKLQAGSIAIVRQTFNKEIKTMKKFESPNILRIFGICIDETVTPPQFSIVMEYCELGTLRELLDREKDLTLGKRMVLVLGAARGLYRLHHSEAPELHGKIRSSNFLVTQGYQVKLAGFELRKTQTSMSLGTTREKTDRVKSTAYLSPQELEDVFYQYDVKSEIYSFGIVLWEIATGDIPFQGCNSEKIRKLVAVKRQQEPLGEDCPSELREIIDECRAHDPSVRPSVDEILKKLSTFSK
# Protocol: MLKL degradation ability was evaluated in the following method.
# 1 mL of Human liver cancer cell line (HepG2 cell line) or human skin cell line (HaCaT cell line) was equally distributed into each well at 2.0×10^5 cells/mL in a 12-well cell culture plate. On the next day, the medium was replaced with a medium made so that the final concentration of test compound was 1 or 10 μM (1 mL/well), and incubated in 5% CO2, at 37° C. for 20-24 hours (Thermo scientific, Forma steri-cycle).
# For protein preparation after incubation, cells were washed with 1×TBST, and 60 μL of RIPA lysis buffer containing Halt™ Protease and Phosphatase Inhibitor Cocktail was dispensed into each well. After scraping the cells with a scraper, the cells were recovered, and the pallet was homogenized and reacted on ice for 30 minutes. After the cells were centrifuged at 13,000 rpm, 10 minutes, 4° C., the supernatant was transferred to a new E-tube. For protein quantification, after dispensing sample and BCA (0-4 mg/ml) in a 96 well plate, 100 μL of BCA was dispensed and reacted in a 37° C. incubator for 30 minutes. After measuring the absorbance (SpectraMax, M5e, 562 nm), the amount of the sample was adjusted with the same concentration of protein and 4× Laemmli sample buffer, DW, and reacted at 100° C. for 5 minutes.
# After assembling the MP TGX Precast Gel in the Mini-PROTEAN Tetra Cell, the same protein (10-15 μg) was added in an 8-10 μL volume per well, 1×Tris-Glycine Buffer was added, and loading was performed. After loading was completed, transfer was performed using Pierce G2 Fast Blotter and Pierce 1-Step Transfer Buffer. After completion of the transfer, 10 ml of SuperBlock™ Blocking Buffer was dispensed and reacted at room temperature for 10 minutes. 5% BSA containing the primary antibody was dispensed and reacted over night at 4° C. The next day, washing was performed three times with 1×TBST at room temperature for 10 minutes. 5% BSA containing the secondary antibody was dispensed and reacted at room temperature for 1 hour. Washing was performed three times with 1×TBST at room temperature for 10 minutes. The amount of protein expression was measured using chemiluminescence (LuminoGraph, ATTO).
# MLKL [2] = target: T1, MLKL; assay: Measurement of binding affinity with MLKL receptor (competitive binding assay, Kd); set-up: made in house; host or cells: HEK 293 cell line (T7 phage in E. coli BL21-derived host is also described)
# Method in brief: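 Competition binding of kinase tagged with DNA for qPCR detection, expressed in HEK 293 cells, against immobilized ligand on beads. Final DMSO 0.9%. Kd derived from kinase amount in eluates measured by qPCR.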
# FADD−/− Jurkat cells = assay: Necroptosis inhibition assay, TNF-α-induced necroptosis (CellTiter-Glo 2.0); format: cell-based, human; details: TNF-α 15 ng/mL; for Necroptosis inhibition assay (Rescue %) 1 μM: compound 1 μM; for Necroptosis inhibition assay (Rescue %) 10 μM: compound 10 μM
# Method in brief: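 Luminescent ATP measurement gave viability, from which cytotoxicity and necroptosis inhibition rate were derived. Before that, cells (5.0×10^5 cells/mL) saw compound at 0.1, 1 or 10 μM final for 30 minutes at room temperature, then TNF-α (15 ng/mL final) for 20 to 24 hours at 37° C.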
Structure (SMILES),Degradation assay (Degradation %) 1 μM (MLKL [1]),Degradation assay (Degradation %) 10 μM (MLKL [1]),Kd (MLKL [2]),Necroptosis inhibition assay (Rescue %) 1 μM (FADD−/− Jurkat cells),Necroptosis inhibition assay (Rescue %) 10 μM (FADD−/− Jurkat cells)
"Nc1ncc(-c2cnn(C3CCN(C(=O)CCCCCC#Cc4cccc5c4CN(C4CCC(=O)NC4=O)C5=O)CC3)c2)nc1C(=O)O[C@@H](C(=O)Nc1ccc(F)cc1)c1ccccc1 (stereo partly drawn) [TDH-423, (R)-2-((4-fluorophenyl)amino)-2-oxo-1-phenylethyl 3-amino-6-(1-(1-(8-(2-(2,6-dioxopiperidin-3-yl)-1-oxoisoindolin-4-yl)oct-7-ynoyl)piperidin-4-yl)-1H-pyrazol-4-yl)pyrazine-2-carboxylate]",61.54%,39.01%,9.8 nM,–,–
"Nc1ncc(-c2ccc(N3CCN(CCOCCOCCNC(=O)CNc4cccc5c4C(=O)N(C4CCC(=O)NC4=O)C5=O)CC3)nc2)nc1C(=O)OC(C(=O)Nc1ccc(F)cc1)c1ccccc1 (centres unmarked) [TDH-259, 2-((4-fluorophenyl)amino)-2-oxo-1-phenylethyl 3-amino-6-(6-(4-(2-(2-(2-(2-((2-(2,6-dioxopiperidin-3-yl)-1,3-dioxoisoindolin-4-yl)amino)acetamido)ethoxy)ethoxy)ethyl)piperazin-1-yl)pyridin-3-yl)pyrazine-2-carboxylate]",18.61%,30.36%,50 nM,–,–
"Nc1ncc(-c2cnn(C3CCN(CC4CCN(C(=O)CNc5cccc6c5C(=O)N(C5CCC(=O)NC5=O)C6=O)CC4)CC3)c2)nc1C(=O)N[C@@H](C(=O)Nc1ccc(F)cc1)c1ccccc1 (stereo partly drawn) [TDH-206, 3-amino-6-(1-(1-((1-((2-(2,6-dioxopiperidin-3-yl)-1,3-dioxoisoindolin-4-yl)glycyl)piperidin-4-yl)methyl)piperidin-4-yl)-1H-pyrazol-4-yl)-N-((R)-2-((4-fluorophenyl)amino)-2-oxo-1-phenylethyl)pyrazine-2-carboxamide]",21.78%,14.94%,240 nM,–,–
"Nc1ncc(C2=CCN(C(=O)COCCOCCNC(=O)C3CCN(c4cccc5c4C(=O)N(C4CCC(=O)NC4=O)C5=O)CC3)CC2)cc1C(=O)O[C@@H](C(=O)Nc1ccc(F)cc1)c1ccccc1 (stereo partly drawn) [TDH-088, (R)-2-((4-fluorophenyl)amino)-2-oxo-1-phenylethyl 6-amino-1′-(2-(2-(2-(1-(2-(2,6-dioxopiperidin-3-yl)-1,3-dioxoisoindolin-4-yl)piperidine-4-carboxamido)ethoxy)ethoxy)acetyl)-1′,2′,3′,6′-tetrahydro-[3,4′-bipyridine]-5-carboxylate]",–,–,33 nM,4.62%,–
"Nc1ncc(-c2cnn(C3CCN(CCOCCOCCNC(=O)CNc4ccc5c(c4)C(=O)N(C4CCC(=O)NC4=O)C5=O)CC3)c2)nc1C(=O)N[C@@H](C(=O)Nc1ccc(F)cc1)c1ccccc1 (stereo partly drawn) [TDH-218, 3-amino-6-(1-(1-(2-(2-(2-(2-((2-(2,6-dioxopiperidin-3-yl)-1,3-dioxoisoindolin-5-yl)amino)acetamido)ethoxy)ethoxy)ethyl)piperidin-4-yl)-1H-pyrazol-4-yl)-N-((R)-2-((4-fluorophenyl)amino)-2-oxo-1-phenylethyl)pyrazine-2-carboxamide]",–,–,46 nM,27.92%,40.68%
"Nc1ncc(-c2ccc(N3CCN(CC4CCN(C(=O)C5CCN(c6cccc7c6C(=O)N(C6CCC(=O)NC6=O)C7=O)CC5)CC4)CC3)nc2)nc1C(=O)OC(C(=O)Nc1ccc(F)cc1)c1ccccc1 (centres unmarked) [TDH-230, 2-((4-fluorophenyl)amino)-2-oxo-1-phenylethyl 3-amino-6-(6-(4-((1-(1-(2-(2,6-dioxopiperidin-3-yl)-1,3-dioxoisoindolin-4-yl)piperidine-4-carbonyl)piperidin-4-yl)methyl)piperazin-1-yl)pyridin-3-yl)pyrazine-2-carboxylate]",–,–,140 nM,7.4%,10.64%
"Nc1ncc(-c2cnn(C3CCN(CC4CCN(c5cccc6c5C(=O)N(C5CCC(=O)NC5=O)C6=O)CC4)CC3)c2)nc1C(=O)N[C@@H](C(=O)Nc1ccc(F)cc1)c1ccccc1 (stereo partly drawn) [TDH-208, 3-amino-6-(1-(1-((1-(2-(2,6-dioxopiperidin-3-yl)-1,3-dioxoisoindolin-4-yl)piperidin-4-yl)methyl)piperidin-4-yl)-1H-pyrazol-4-yl)-N-((R)-2-((4-fluorophenyl)amino)-2-oxo-1-phenylethyl)pyrazine-2-carboxamide]",–,–,350 nM,–,15.28%
"Nc1ncc(-c2cnn(C3CCN(CCOCCOCCNC(=O)C4CN(c5ccc6c(c5)C(=O)N(C5CCC(=O)NC5=O)C6=O)C4)CC3)c2)nc1C(=O)O[C@@H](C(=O)Nc1ccc(F)cc1)c1ccccc1 (stereo partly drawn) [TDH-116, (R)-2-((4-fluorophenyl)amino)-2-oxo-1-phenylethyl 3-amino-6-(1-(1-(2-(2-(2-(1-(2-(2,6-dioxopiperidin-3-yl)-1,3-dioxoisoindolin-5-yl)azetidine-3-carboxamido)ethoxy)ethoxy)ethyl)piperidin-4-yl)-1H-pyrazol-4-yl)pyrazine-2-carboxylate]",–,–,2 nM,16.8%,42.8%
"Nc1ncc(C2=CCN(C(=O)CCCCCNC(=O)C3CN(c4ccc5c(c4)C(=O)N(C4CCC(=O)NC4=O)C5=O)C3)CC2)cc1C(=O)O[C@@H](C(=O)Nc1ccc(F)cc1)c1ccccc1 (stereo partly drawn) [TDH-092, (R)-2-((4-fluorophenyl)amino)-2-oxo-1-phenylethyl 6-amino-1′-(6-(1-(2-(2,6-dioxopiperidin-3-yl)-1,3-dioxoisoindolin-5-yl)azetidine-3-carboxamido)hexanoyl)-1′,2′,3′,6′-tetrahydro-[3,4′-bipyridine]-5-carboxylate]",–,–,120 nM,2.1%,–
"Nc1ncc(-c2cnn(C3CCN(CCOCCOCCNc4cccc5c4C(=O)N(C4CCC(=O)NC4=O)C5=O)CC3)c2)nc1C(=O)O[C@@H](C(=O)Nc1ccc(F)cc1)c1ccccc1 (stereo partly drawn) [TDH-121, (R)-2-((4-fluorophenyl)amino)-2-oxo-1-phenylethyl 3-amino-6-(1-(1-(2-(2-(2-((2-(2,6-dioxopiperidin-3-yl)-1,3-dioxoisoindolin-4-yl)amino)ethoxy)ethoxy)ethyl)piperidin-4-yl)-1H-pyrazol-4-yl)pyrazine-2-carboxylate]",–,–,4.6 nM,2.96%,–
"Nc1ncc(C2=CCN(CCOCCOCCNC(=O)CNc3ccc4c(c3)C(=O)N(C3CCC(=O)NC3=O)C4=O)CC2)nc1C(=O)O[C@@H](C(=O)Nc1ccc(F)cc1)c1ccccc1 (stereo partly drawn) [TDH-107, (R)-2-((4-fluorophenyl)amino)-2-oxo-1-phenylethyl 3-amino-6-(1-(2-(2-(2-(2-((2-(2,6-dioxopiperidin-3-yl)-1,3-dioxoisoindolin-5-yl)amino)acetamido)ethoxy)ethoxy)ethyl)-1,2,3,6-tetrahydropyridin-4-yl)pyrazine-2-carboxylate]",–,–,560 nM,24.34%,50.16%
